Data published in patent US20150065345A1, “1,2,4 - TRIAZOLE DERIVATIVES AS HERBICIDALS” (SYNGENTA LIMITED, priority 2012, published 2015).

How the values were obtained:
Type in all cases: in vivo
[1] = system: Alopecurus myosuroides (ALOMY); assay: Glasshouse herbicide test, post-emergence; conditions: 1000 g/h, evaluated after 13 days, five point scale
Experimental: (§1) Seeds of a variety of test species are sown in standard soil in pots Alopecurus myosuroides (ALOMY), Amaranthus retoflexus (AMARE), Setaria faberi (SETFA), Echinochloa crus-galli (ECHCG), Lolium perenne (LOLPE), Solanum nigrum (SOLNI), Stellaria media (STEME) and Digitaria sanguinalis (DIGSA). After cultivation for one day (pre-emergence) or after 8 days cultivation (post-emergence) under controlled conditions in a glasshouse (at 24/16° C., day/night; 14 hours light; 65% humidity), the plants are sprayed with an aqueous spray solution derived from the formulation of the technical active ingredient in acetone/water (50:50) solution containing 0.5% Tween 20 (polyoxyethelyene sorbitan monolaurate, CAS RN 9005-64-5). Compounds are applied at 1000 g/h. The test plants are then grown in a glasshouse under controlled conditions in a glasshouse (at 24/16° C., day/night; 14 hours light; 65% humidity) and watered twice daily. After 13 days for pre and post-emergence, the test is evaluated for the percentage damage caused to the plant. The biological activities are shown in the following table on a five point scale (5=80-100%; 4=60-79%; 3=40-59%; 2=20-39%; 1=0-19%).

[2] = system: Amaranthus retoflexus (AMARE); assay: Glasshouse herbicide test, post-emergence; conditions: 1000 g/h, evaluated after 13 days, five point scale, second table
Experimental: as §1

[3] = system: Echinochloa crus-galli (ECHCG); assay: Glasshouse herbicide test, post-emergence; conditions: 1000 g/h, evaluated after 13 days, five point scale
Experimental: as §1

IPOHE [4] = assay: Glasshouse herbicide test, post-emergence; conditions: 1000 g/h, evaluated after 13 days, five point scale
Experimental: [The procedure below names another species; the source lists this species under the same test.] as §1

Setaria faberi (SETFA) [5] = assay: Glasshouse herbicide test, post-emergence; conditions: 1000 g/h, evaluated after 13 days, five point scale
Experimental: as §1

Solanum nigrum (SOLNI) [6] = assay: Glasshouse herbicide test, post-emergence; conditions: 1000 g/h, evaluated after 13 days, five point scale
Experimental: as §1

[7] = system: Alopecurus myosuroides (ALOMY); assay: Glasshouse herbicide test, pre-emergence; conditions: 1000 g/h, evaluated after 13 days, five point scale
Experimental: as §1

[8] = system: Amaranthus retoflexus (AMARE); assay: Glasshouse herbicide test, pre-emergence; conditions: 1000 g/h, evaluated after 13 days, five point scale, second table
Experimental: as §1

[9] = system: Echinochloa crus-galli (ECHCG); assay: Glasshouse herbicide test, pre-emergence; conditions: 1000 g/h, evaluated after 13 days, five point scale
Experimental: as §1

IPOHE [10] = assay: Glasshouse herbicide test, pre-emergence; conditions: 1000 g/h, evaluated after 13 days, five point scale
Experimental: [The procedure below names another species; the source lists this species under the same test.] as §1

Setaria faberi (SETFA) [11] = assay: Glasshouse herbicide test, pre-emergence; conditions: 1000 g/h, evaluated after 13 days, five point scale
Experimental: as §1

Solanum nigrum (SOLNI) [12] = assay: Glasshouse herbicide test, pre-emergence; conditions: 1000 g/h, evaluated after 13 days, five point scale
Experimental: as §1

Compound | percentage damage caused to the plant, ALOMY, POST Application [1] | percentage damage caused to the plant, AMARE, POST Application [2] | percentage damage caused to the plant, ECHCG, POST Application [3] | percentage damage caused to the plant, IPOHE, POST Application (IPOHE [4]) | percentage damage caused to the plant, SETFA, POST Application (Setaria faberi (SETFA) [5]) | percentage damage caused to the plant, SOLNI, POST Application (Solanum nigrum (SOLNI) [6]) | percentage damage caused to the plant, ALOMY, PRE Application [7] | percentage damage caused to the plant, AMARE, PRE Application [8] | percentage damage caused to the plant, ECHCG, PRE Application [9] | percentage damage caused to the plant, IPOHE, PRE Application (IPOHE [10]) | percentage damage caused to the plant, SETFA, PRE Application (Setaria faberi (SETFA) [11]) | percentage damage caused to the plant, SOLNI, PRE Application (Solanum nigrum (SOLNI) [12])
Cc1nnc(NC(=O)c2ccc(C(F)(F)F)cc2S(C)(=O)=O)n1C [Compound 1.009] | 2 (2=20-39%) | 2 (2=20-39%) | 1 (1=0-19%) | 3 (3=40-59%) | 1 (1=0-19%) | 4 (4=60-79%) | 1 (1=0-19%) | 4 (4=60-79%) | 1 (1=0-19%) | 1 (1=0-19%) | 1 (1=0-19%) | 2 (2=20-39%)
CCc1nnc(NC(=O)c2ccc(S(C)(=O)=O)c(COCC(F)(F)F)c2Cl)n1C [Compound 1.013] | 2 (2=20-39%) | 1 (1=0-19%) | 1 (1=0-19%) | 1 (1=0-19%) | 1 (1=0-19%) | 2 (2=20-39%) | 1 (1=0-19%) | 1 (1=0-19%) | 1 (1=0-19%) | 1 (1=0-19%) | 1 (1=0-19%) | 1 (1=0-19%)
CCc1nnc(NC(=O)c2ccc(C(F)(F)F)cc2S(C)(=O)=O)n1C [Compound 1.010] | 2 (2=20-39%) | 1 (1=0-19%) | 2 (2=20-39%) | 2 (2=20-39%) | 2 (2=20-39%) | 2 (2=20-39%) | 1 (1=0-19%) | 1 (1=0-19%) | 1 (1=0-19%) | 1 (1=0-19%) | 1 (1=0-19%) | 1 (1=0-19%)
Cc1ccc(C(F)(F)F)c(C(=O)Nc2nncn2C)c1 [Compound 2.006] | 1 (1=0-19%) | 2 (2=20-39%) | 1 (1=0-19%) | 2 (2=20-39%) | 1 (1=0-19%) | 4 (4=60-79%) | 1 (1=0-19%) | 2 (2=20-39%) | 1 (1=0-19%) | 3 (3=40-59%) | 1 (1=0-19%) | 3 (3=40-59%)
Cn1cnnc1NC(=O)c1ccc(C(F)(F)F)cc1S(C)(=O)=O [Compound 1.008] | 3 (3=40-59%) | 5 (5=80-100%) | 4 (4=60-79%) | 5 (5=80-100%) | 3 (3=40-59%) | 5 (5=80-100%) | 2 (2=20-39%) | 5 (5=80-100%) | 5 (5=80-100%) | 4 (4=60-79%) | 3 (3=40-59%) | 5 (5=80-100%)
CCn1c(C)nnc1NC(=O)c1ccc(S(C)(=O)=O)c(COCC(F)(F)F)c1Cl [Compound 1.015] | 2 (2=20-39%) | 4 (4=60-79%) | 2 (2=20-39%) | 4 (4=60-79%) | 1 (1=0-19%) | 4 (4=60-79%) | 1 (1=0-19%) | 4 (4=60-79%) | 1 (1=0-19%) | 2 (2=20-39%) | 1 (1=0-19%) | 4 (4=60-79%)
Cn1cnnc1NC(=O)c1cc(F)c(F)cc1[N+](=O)[O-] [Compound 2.003] | 1 (1=0-19%) | 1 (1=0-19%) | 1 (1=0-19%) | 1 (1=0-19%) | 1 (1=0-19%) | 1 (1=0-19%) | 1 (1=0-19%) | 1 (1=0-19%) | 1 (1=0-19%) | 1 (1=0-19%) | 1 (1=0-19%) | 1 (1=0-19%)
CCn1cnnc1NC(=O)c1ccc(C(F)(F)F)cc1S(C)(=O)=O [Compound 1.011] | 2 (2=20-39%) | 5 (5=80-100%) | 4 (4=60-79%) | 5 (5=80-100%) | 2 (2=20-39%) | 5 (5=80-100%) | 1 (1=0-19%) | 5 (5=80-100%) | 4 (4=60-79%) | 4 (4=60-79%) | 2 (2=20-39%) | 5 (5=80-100%)
CCn1cnnc1NC(=O)c1ccc(S(C)(=O)=O)c(COCC(F)(F)F)c1Cl [Compound 1.014] | 5 (5=80-100%) | 5 (5=80-100%) | 5 (5=80-100%) | 5 (5=80-100%) | 5 (5=80-100%) | 5 (5=80-100%) | 5 (5=80-100%) | 5 (5=80-100%) | 5 (5=80-100%) | 5 (5=80-100%) | 5 (5=80-100%) | 5 (5=80-100%)
